From US11618738B2, “Compound and application thereof in treating inflammation or inflammation-related diseases” (SICHUAN CENTER FOR TRANSLATIONAL MEDICINE OF TRADITIONAL …, priority 2017, dated 2023)
Where two headings read alike, the source gives them in different places.

Columns and labels:
[1] = system: PGE2 induced by LPS; assay: Inhibition of LPS-induced PGE2 in RAW 264.7 cells (ELISA); type: cell-based, mice
Experimental: (§1) This example is taken from a previous publication by Song et al.^[1]. In brief, mice RAW 264.7 cells were treated with increasing doses of each test compound at 37° C. for 1 hour. Thereafter, the cells were attacked with 20 μL/well of LPS (equivalent to a final concentration of 100 ng/mL). The cells were further incubated overnight at 37° C. A commercial ELISA assay kit obtained from R&D Systems (Minneapolis, Minn.) was used to determine the level of PGE2 in the supernatant, and three parallel experiments were performed. The optical density of each well was measured using a BioTek Epoch microplate reader (Winooski, Vt.) set to 450 nm. The NO study was performed in a similar manner, but Greiss reagent was used to monitor the level of NO, and the results were read at 550 nm.

[2] = system: NO induced by LPS; assay: Inhibition of LPS-induced NO in RAW 264.7 cells (Greiss reagent); type: cell-based, mice; conditions: for IC50: Mus musculus, RAW264.7
Excerpt: Nitric oxide (NO) is a signaling molecule that plays a key role in the pathogenesis of inflammation. Under abnormal conditions, NO is a pro-inflammatory mediator that causes inflammation due to its overproduction. Therefore, the regulation of elevated NO levels by stimulants (such as LPS) has been widely used as a screening method to identify anti-inflammatory drugs. Since NO is oxidized into nitrite and nitrate, the determination of total NO2^−/NO3^− is a conventional method for determining NO levels, and Griess reagent is usually used in this type of experiment.
as §1

[3] = system: hot plate pain in mice; assay: Hot plate pain threshold in mice; type: in vivo; conditions: for Percentage increase in pain threshold (%): mean ± SD
Experimental: The hot plate method uses a certain intensity of warm heat to stimulate mice to produce pain reaction. This experiment observes the analgesic effect of UTLOH series compounds.
Female SPF-grade Kunming mice (18-22 g/mouse) were put in a hot plate apparatus at a temperature of 55±0.5° C., and the pain threshold of the mice was measured. The measurement was performed twice, and the measurement was performed every 5 minutes. Taking the mouse licking hind feet as the observation index. The mice with pain response within 30 s were selected as experimental animals. The pre-selected qualified mice were randomly grouped according to their body weight. The blank group was intraperitoneally injected with 0.2 ml/10 g body weight of normal saline, and the other groups were intraperitoneally injected with corresponding drugs. The pain threshold was measured 30 and 60 minutes after the administration. If the mouse had no pain within 60 seconds, it was taken out immediately and calculated at 60 seconds.

[4] = system: writhing response of mice with acetic acid; assay: Writhing response of mice induced by intraperitoneal glacial acetic acid; type: in vivo; conditions: for Writhing reaction inhibition percentage (%): mean ± SD; for writhing response in mice induced by acetic acid (in words): the four dose groups (25-200 mg/kg)
Experimental: After glacial acetic acid is injected into the abdominal cavity of mice, it can cause inflammatory pain and cause writhing reaction in mice. In this experiment, the analgesic effects of UTLOH compounds were observed by the number of writhing times in mice after intraperitoneal injection of glacial acetic acid.
Taking 100 KM mice, SPF grade, half male and half […] (18-22 g/mouse), and randomly grouping them according to their body weight. Except that the blank control group was given 0.5% CMC-Na suspension by gavage administration, the other groups were given the corresponding drugs by gavage for 3 continuous days, once a day, with a gavage volume of 0.2 ml/10 g. 30 minutes after the administration on the 3rd day, each group of mice was intraperitoneally injected with 0.6% glacial acetic acid, 0.1 ml/10 g, to create writhing reaction model in mice.

[5] = system: 10% egg white-induced foot swelling in rats; assay: 10% egg white-induced foot swelling in rats; type: in vivo; conditions: for Foot swelling: mean ± SD
Excerpt: Injecting 10% egg white into rat paws can cause early acute inflammation such as redness, heat, swelling, and pain in rat paws. In this experiment, the anti-inflammatory effects of UTLOH series compounds were observed by the degree of swelling of the paws of rats after inflammation.
SPF grade SD rats, half female and half male (100-120 g/mouse) were randomly grouped according to body weight. Each group was given the corresponding drugs by gavage, once a day, for 3 consecutive days, with a gavage volume of 1 ml/100 g. Before the experiment, the ankle joint of the right hind foot of each group of rats was marked, and the foot volume of each group of rats was measured twice with a rat foot volume meter, and the average of the two times was taken as the […]. 30 minutes after the last administration, the rats in each group were given a subcutaneous needle in the right hind paw, and injected with 10% fresh egg white solution 0.1 ml/mouse to cause inflammation, establishing a rat model of paw swelling. The post-inflamed foot volume in mice was measured twice at 1 h, 2 h, 3 h, and 4 h after inflammation, and the average of the two times was taken as the post-inflamed foot volume. The normal group was given 1 ml/100 g volume of 0.5% CMC-Na solution by gavage according to body weight.

[6] = 25 mg/kg intraperitoneal, 30 min after administration
[7] = 25 mg/kg intraperitoneal, 60 min after administration
[8] = 50 mg/kg intraperitoneal, 30 min after administration
[9] = 100 mg/kg intraperitoneal, 30 min after administration
[10] = 100 mg/kg intraperitoneal, 60 min after administration
[11] = 200 mg/kg intraperitoneal, 30 min after administration
[12] = 200 mg/kg intraperitoneal, 60 min after administration
[13] = 25 mg/kg gavage once a day for 3 days
[14] = 50 mg/kg gavage once a day for 3 days
[15] = 100 mg/kg gavage once a day for 3 days
[16] = 200 mg/kg gavage once a day for 3 days
[17] = 10 mg/kg gavage once a day for 3 days, 1 h after inflammation
[18] = 10 mg/kg gavage once a day for 3 days, 2 h after inflammation
[19] = 10 mg/kg gavage once a day for 3 days, 3 h after inflammation
[20] = 10 mg/kg gavage once a day for 3 days, 4 h after inflammation
[21] = 20 mg/kg gavage once a day for 3 days, 1 h after inflammation
[22] = 20 mg/kg gavage once a day for 3 days, 2 h after inflammation
[23] = 20 mg/kg gavage once a day for 3 days, 3 h after inflammation
[24] = 20 mg/kg gavage once a day for 3 days, 4 h after inflammation
[25] = 40 mg/kg gavage once a day for 3 days, 1 h after inflammation
[26] = 40 mg/kg gavage once a day for 3 days, 2 h after inflammation
[27] = 40 mg/kg gavage once a day for 3 days, 3 h after inflammation
[28] = 40 mg/kg gavage once a day for 3 days, 4 h after inflammation

Compound	Percentage increase in pain threshold (%) [3, 6]	Percentage increase in pain threshold (%) [3, 7]	Percentage increase in pain threshold (%) [3, 8]	Percentage increase in pain threshold (%) [3, 9]	Percentage increase in pain threshold (%) [3, 10]	Percentage increase in pain threshold (%) [3, 11]	Percentage increase in pain threshold (%) [3, 12]	Writhing reaction inhibition percentage (%) [4, 13]	Writhing reaction inhibition percentage (%) [4, 14]	Writhing reaction inhibition percentage (%) [4, 15]	Writhing reaction inhibition percentage (%) [4, 16]	writhing response in mice induced by acetic acid (in words) [4]	Foot swelling [5, 17]	Foot swelling [5, 18]	Foot swelling [5, 19]	Foot swelling [5, 20]	Foot swelling [5, 21]	Foot swelling [5, 22]	Foot swelling [5, 23]	Foot swelling [5, 24]	also measured
Cc1cc(C(=O)Nc2ccccc2O)no1 [UTLOH-4a]	−15.08 ± 37.87%	−16.76 ± 33.81%	−6.95 ± 41.45%	−19.99 ± 38.23 %	−34.23 ± 39.23 %	−30.12 ± 27.69 %	−29.65 ± 24.62 %	21.63 ± 29.24 %	24.26 ± 10.11 %	28.48 ± 15.74 %	23.05 ± 10.08 %	significantly inhibit	0.50 ± 0.08 mL	0.79 ± 0.07 mL	0.63 ± 0.13 mL	0.47 ± 0.13 mL	0.55 ± 0.11 mL	0.79 ± 0.14 mL	0.64 ± 0.15 mL	0.48 ± 0.12 mL	PGE2 inhibition (%) ([1]; RAW 264.7 cells, LPS 100 ng/mL, overnight, test concentration not given): 98.5%; inhibition on PGE2 compared to leflunomide (in words) ([1]; compared to leflunomide): stronger; IC50 ([2]; RAW 264.7 cells, LPS 100 ng/mL, overnight, read-out: NO IC50 (μM), class): < 10 µM; IC50 ([2]; RAW 264.7 cells, LPS 100 ng/mL, overnight, read-out: NO IC50 (μM), value in brackets): 1.4 µM; inhibition of LPS-induced NO compared with leflunomide and teriflunomide (in words) ([2]; compared with leflunomide and teriflunomide): more strongly; percentage increase in the pain threshold, hot plate (in words) ([3]; 100 mg/kg and 200 mg/kg, 30 and 60 minutes after administration): significantly reduce; Foot swelling [5, 25]: 0.65 ± 0.18 mL; Foot swelling [5, 26]: 0.77 ± 0.11 mL; Foot swelling [5, 27]: 0.57 ± 0.15 mL; Foot swelling [5, 28]: 0.48 ± 0.12 mL; foot swelling compared with the normal group (in words) ([5]; low, medium- and high-dose group, 1 h after inflammation): significantly reduce
Cc1cc(C(=O)Nc2ccc(O)cc2O)no1 [UTLOH-4e]	−17.71 ± 38.50 %	−2.76 ± 34.01%	−3.15 ± 46.73%	15.50 ± 103.74%	−11.18 ± 85.76%	−28.73 ± 28.36 %	−16.72 ± 40.12%	36.52 ± 10.08 %	35.63 ± 17.03 %	39.54 ± 15.18 %	30.14 ± 17.18 %	significantly inhibit	0.67 ± 0.15 mL	0.66 ± 0.15 mL	0.60 ± 0.16 mL	0.44 ± 0.07 mL	0.69 ± 0.08 mL	0.55 ± 0.13 mL	0.51 ± 0.09 mL	0.38 ± 0.12 mL	PGE2 inhibition rate (in words) ([1]; same experimental method as Table 1): very good; IC50 ([2]; same method as Table 1, given as 10-50 μM, or <10 μM, read-out: IC50 of NO): ≤ 50 µM; percentage increase in the pain threshold, hot plate (in words) ([3]; 25 mg/kg and 200 mg/kg, 30 minutes after administration): significantly reduce; Percentage increase in pain threshold (%) ([3]; 50 mg/kg intraperitoneal, 60 min after administration): 8.36 ± 84.14%; Foot swelling [5, 25]: 0.69 ± 0.13 mL; Foot swelling [5, 26]: 0.57 ± 0.17 mL; Foot swelling [5, 27]: 0.49 ± 0.15 mL; Foot swelling [5, 28]: 0.45 ± 0.16 mL; foot swelling degree compared with the normal group (in words) ([5]; low-dose group, 1 h after inflammation): significantly reduced; foot swelling degree compared with the normal group (in words) ([5]; medium-dose group and high-dose group, 1 h, 2 h and 3 h after inflammation): significantly reduced
